Test results published in patent US20200306216A1, “CURE FOR ALZHEIMER'S DISEASE” (priority 2019, published 2020).

Assay: Single-patient clinical case: combination therapy for Alzheimer's disease
Type: in vivo, human
Conditions: overall outcome as stated by applicant
Protocol: A patient suffering from significant memory loss and vision loss was evaluated for treatment. The patient suffered a gradual decline in both short-term and long-term memory over at least three years. The patient also complained about vision loss over a period of about six years. The patient scored 11 out of 30 on a mental status exam, indicating dementia or other cognitive impairment. A clinical psychologist determined that the patient was oriented to person, but poorly oriented to place and time. […] The patient acknowledged having anger problems. The patent denied having anxiety, mania, or depression but acknowledged occasional suicidal ideation. They denied having any current intent to harm […]. The patient's spouse reported that the patient would sometimes sit and rock back-and-forth. They also reported that the patient would sometimes hit their head when upset. There was no evidence that the patient suffered from delusions or hallucinations, and there was no evidence of agnosia. The patient previously had coronary artery bypass surgery and also suffered from type 2 diabetes mellitus for multiple decades. […] The patient also suffered from hepatitis C, but was not previously treated. It was determined that the patient was only able to perceive light in both eyes. The patient's loss of vision was due to glaucoma and diabetic retinopathy. […]

SMILES | outcome of treatment of Alzheimer's disease
COc1cc2c(cc1OC)C(=O)C(CC1CCN(Cc3ccccc3)CC1)C2 (centres unmarked) [donepezil] | unsuccessful
CC12CC3CC(C)(C1)CC(N)(C3)C2 [memantine] | unsuccessful
